Test results published in patent US9944654B2, “Nargenicin compounds and uses thereof as antibacterial agents” (priority 2014, dated 2018).
≈ marks a conversion by molar mass, not a printed value. Read-outs that look alike come from different tables or passages of the source.

Key:
[1] = tested on: Streptococcus pneumoniae MB6357 (CL 2883); experiment: Nargenicin antibacterial assay (MIC), S. pneumoniae; format: cell-based; conditions: * = some reduction of growth versus control at […]; for MIC: Streptococcus pneumoniae, read-out: S. pneumoniae MB2883 (MIC), Isosensitest broth; for S. pneumoniae MB2883 (MIC): Isosensitest broth
[2] = tested on: Escherichia coli MB5747 (LS 883, tolC); experiment: microbe, parasite or virus in culture; format: cell-based; conditions: * = some reduction of growth versus control at […]; for MIC: Escherichia coli, read-out: E. coli LS883 tolC (MIC), MHII broth; for E. coli LS883 tolC (MIC): MHII broth
[3] = tested on: Pseudomonas aeruginosa MB5890 (CB1101, efflux-deleted); experiment: microbe, parasite or virus in culture; format: cell-based; conditions: * = some reduction of growth versus control at […]; for MIC: Pseudomonas aeruginosa, read-out: P. aeruginosa MB5890 efflux-del (MIC), MHII broth; for P. aeruginosa MB5890 efflux-del (MIC): MHII broth
[4] = target: T1, E. coli DnaE (DNA polymerase III α-subunit from Escherichia coli) (Escherichia coli, UniProt P10443); experiment: In vitro DnaE single enzyme assay (E. coli); format: biochemical
T1 construct: EcDnaE (E. coli DnaE residues 1-1160); 6xHis (N); made in house; host or cells: E. coli BL21(DE3)
Summary of the method: (§1)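 3H-dTTP (0.011 mM) incorporation into DNase I-activated calf thymus DNA, alongside the other three dNTPs at 0.025 mM, measured by filter counting after TCA precipitation. Reactions ran 30 min at 30° C., started with purified N-His DnaE: 0.8 μg/ml for E. coli, 0.05 μg/ml for S. aureus.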

[5] = target: T2, S. aureus DnaE (DNA polymerase III α-subunit homolog from Staphylococcus aureus) (Staphylococcus aureus, UniProt Q5HF71); experiment: biochemical; format: biochemical
T2 construct: SaDnaE (S. aureus DnaE residues 1-1065); 6xHis (N); made in house; host or cells: E. coli BL21-AI
T2 sequence (Q5HF71 1-1065): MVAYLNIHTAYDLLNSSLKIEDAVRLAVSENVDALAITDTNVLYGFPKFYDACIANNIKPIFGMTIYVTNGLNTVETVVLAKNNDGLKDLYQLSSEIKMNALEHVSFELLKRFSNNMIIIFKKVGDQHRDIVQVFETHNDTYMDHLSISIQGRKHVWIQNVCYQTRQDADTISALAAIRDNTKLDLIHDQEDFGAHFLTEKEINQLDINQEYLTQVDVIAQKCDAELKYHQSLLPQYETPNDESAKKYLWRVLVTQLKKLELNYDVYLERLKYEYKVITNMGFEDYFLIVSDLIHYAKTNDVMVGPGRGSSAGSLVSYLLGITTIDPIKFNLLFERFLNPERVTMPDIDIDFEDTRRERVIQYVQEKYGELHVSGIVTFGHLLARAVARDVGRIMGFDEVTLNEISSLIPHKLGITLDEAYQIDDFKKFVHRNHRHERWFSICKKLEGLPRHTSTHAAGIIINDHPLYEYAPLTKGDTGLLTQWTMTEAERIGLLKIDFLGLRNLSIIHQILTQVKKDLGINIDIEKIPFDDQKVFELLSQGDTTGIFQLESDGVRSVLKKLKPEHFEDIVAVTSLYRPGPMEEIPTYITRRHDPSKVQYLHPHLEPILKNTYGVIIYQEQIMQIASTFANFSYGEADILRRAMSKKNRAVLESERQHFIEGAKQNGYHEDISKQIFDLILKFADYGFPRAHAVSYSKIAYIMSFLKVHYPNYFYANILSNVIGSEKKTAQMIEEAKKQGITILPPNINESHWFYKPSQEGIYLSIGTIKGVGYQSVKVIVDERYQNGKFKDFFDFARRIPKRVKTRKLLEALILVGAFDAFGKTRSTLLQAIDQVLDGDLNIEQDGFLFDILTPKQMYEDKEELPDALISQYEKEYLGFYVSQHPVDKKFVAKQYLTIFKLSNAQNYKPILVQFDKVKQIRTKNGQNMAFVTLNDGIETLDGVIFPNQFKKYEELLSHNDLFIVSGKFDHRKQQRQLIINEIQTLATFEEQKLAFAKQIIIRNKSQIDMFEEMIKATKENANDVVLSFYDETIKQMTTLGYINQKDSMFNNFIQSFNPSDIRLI
Summary of the method: as §1

[6] = tested on: Staphylococcus aureus MB6266 (MRSA COL); experiment: Nargenicin antibacterial assay (MIC), S. aureus; format: cell-based; conditions: * = some reduction of growth versus control at […]; for MIC: Staphylococcus aureus, MRSA, read-out: S. aureus COL (MIC), MHII broth + 50% human serum; for S. aureus COL (MIC): MHII broth + 50% human serum
[7] = read-out: E. coli DnaE IC50 (converted)

T1 sequence (P10443 whole entry, the tested form may be a part): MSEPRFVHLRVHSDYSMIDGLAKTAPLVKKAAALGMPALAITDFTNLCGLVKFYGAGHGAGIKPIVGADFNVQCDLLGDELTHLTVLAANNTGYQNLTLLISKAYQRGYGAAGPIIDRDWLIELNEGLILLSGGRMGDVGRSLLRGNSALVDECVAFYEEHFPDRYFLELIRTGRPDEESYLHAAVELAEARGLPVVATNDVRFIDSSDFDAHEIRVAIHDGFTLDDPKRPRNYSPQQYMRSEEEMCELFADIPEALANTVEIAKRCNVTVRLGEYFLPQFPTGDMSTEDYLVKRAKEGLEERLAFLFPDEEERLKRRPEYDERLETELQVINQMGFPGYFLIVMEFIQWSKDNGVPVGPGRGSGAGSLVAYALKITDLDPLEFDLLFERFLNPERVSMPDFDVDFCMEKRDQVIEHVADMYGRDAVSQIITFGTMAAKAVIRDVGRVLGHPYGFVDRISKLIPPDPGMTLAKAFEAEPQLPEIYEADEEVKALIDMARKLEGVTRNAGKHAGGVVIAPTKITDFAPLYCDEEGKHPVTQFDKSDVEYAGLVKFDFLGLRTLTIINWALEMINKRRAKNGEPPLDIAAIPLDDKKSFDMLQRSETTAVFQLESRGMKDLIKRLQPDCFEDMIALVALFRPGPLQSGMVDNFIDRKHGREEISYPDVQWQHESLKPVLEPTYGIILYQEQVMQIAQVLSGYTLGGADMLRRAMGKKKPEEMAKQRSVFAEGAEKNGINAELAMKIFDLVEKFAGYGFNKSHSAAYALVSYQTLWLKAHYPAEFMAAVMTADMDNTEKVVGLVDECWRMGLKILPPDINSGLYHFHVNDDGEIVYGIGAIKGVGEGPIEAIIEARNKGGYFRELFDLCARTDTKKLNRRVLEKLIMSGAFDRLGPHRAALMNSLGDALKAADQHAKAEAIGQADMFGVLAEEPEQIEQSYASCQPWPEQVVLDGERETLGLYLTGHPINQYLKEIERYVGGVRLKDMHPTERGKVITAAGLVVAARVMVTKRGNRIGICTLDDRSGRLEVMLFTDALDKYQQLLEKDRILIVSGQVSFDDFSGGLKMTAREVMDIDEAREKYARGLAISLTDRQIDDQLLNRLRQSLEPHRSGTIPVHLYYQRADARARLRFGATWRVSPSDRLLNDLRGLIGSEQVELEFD

Compound | MIC [1] | MIC [2] | MIC [3] | IC50 [4, 7] | IC50 ([5]; S. aureus DnaE IC50) | MIC [6] | IC50 ([4]; E. coli DnaE IC50) | IC50 ([5]; read-out: S. aureus DnaE IC50 (converted)) | S. pneumoniae MB2883 (MIC) [1] | E. coli LS883 tolC (MIC) [2] | P. aeruginosa MB5890 efflux-del (MIC) [3] | E. coli DnaE IC50 [4] | S. aureus DnaE IC50 [5] | S. aureus COL (MIC) [6]
C=CC[C@H]1OC(=O)[C@@H](OC)C[C@H]2C=C[C@H]3[C@H]4O[C@]2(/C(C)=C/[C@H]1C)[C@@H]3[C@H](O)[C@@H](C)[C@H]4OC(=O)c1ccc[nH]1 [Example 55] | > 64 µg/mL | 2 µg/mL (≈ 3.91 µM) | 32 µg/mL (≈ 62.5 µM) | 11.7 µM | < 0.0117 µM | 2 µg/mL |  |  |  |  |  |  |  | 
CO[C@H]1CC2C=C[C@H]3[C@H]4O[C@]2(/C(C)=C/[C@@H](C)[C@@H](C(C)OC(C)=O)OC1=O)[C@@H]3[C@H](O)[C@@H](C)[C@H]4OC(=O)c1ccc[nH]1 (stereo partly drawn) [Example 57] | 64 µg/mL (≈ 115 µM) | 4 µg/mL (≈ 7.17 µM) | > 128 µg/mL | 80.7 µM | < 0.0108 µM | 8 µg/mL |  |  |  |  |  |  |  | 
CO[C@H]1C[C@H]2C=C[C@H]3[C@H]4O[C@]2(/C(C)=C/[C@@H](C)[C@@H]([C@@H](C)OC(=O)CCl)OC1=O)[C@@H]3[C@H](O)[C@@H](C)[C@H]4OC(=O)c1ccc[nH]1 [Example 59] | 64 µg/mL (≈ 108 µM) | 0.25 µg/mL (≈ 0.422 µM) | 16 µg/mL (≈ 27 µM) | 16.9 µM | < 0.0101 µM | 0.25 µg/mL |  |  |  |  |  |  |  | 
CO[C@H]1C[C@H]2C=CC3C4[C@H](O)[C@@H](C)[C@@H](OC(=O)c5ccc[nH]5)[C@@H]3O[C@]42/C(C)=C/[C@@H](C)[C@@H]([C@@H](C)OC(=O)n2nnnc2N)OC1=O [Example 64] | > 128 µg/mL | 4 µg/mL (≈ 6.38 µM) | 128 µg/mL (≈ 204 µM) | 46.3 µM | < 0.00957 µM | 4 µg/mL |  |  |  |  |  |  |  | 
CO[C@H]1C[C@H]2C=CC3C4[C@H](O)[C@@H](C)[C@@H](OC(=O)c5ccc[nH]5)[C@@H]3O[C@]42/C(C)=C/[C@@H](C)[C@@H]([C@@H](C)OC(=O)Nc2nnn[nH]2)OC1=O [Example 65] | > 128 µg/mL | 2 µg/mL (≈ 3.19 µM) | 64 µg/mL (≈ 102 µM) | 16 µM | < 0.00957 µM | 2 µg/mL |  |  |  |  |  |  |  | 
CO[C@H]1C[C@H]2C=C[C@H]3[C@H]4O[C@]2(/C(C)=C/[C@@H](C)[C@@H]([C@@H](C)OC(=O)c2ccccc2)OC1=O)[C@@H]3[C@H](O)[C@@H](C)[C@H]4OC(=O)c1ccc[nH]1 [Example 67] | > 128 µg/mL | > 128 µg/mL | > 128 µg/mL |  |  | > 128 µg/mL | 12.9 µM | 0.0113 µM |  |  |  |  |  | 
CO[C@H]1C[C@H]2C=CC3C4[C@H](O)[C@@H](C)[C@@H](OC(=O)c5ccc[nH]5)[C@@H]3O[C@]42/C(C)=C/[C@@H](C)[C@@H]([C@@H](C)OC(=O)C(=O)OCc2ccncc2)OC1=O.O=C(O)C(F)(F)F [Example 69] | > 128 µg/mL | 1 µg/mL | 32 µg/mL | 6.31 µM | < 0.00757 µM | 2 µg/mL |  |  |  |  |  |  |  | 
CO[C@H]1CC2C=C[C@H]3[C@H]4O[C@]2(/C(C)=C/[C@@H](C)[C@@H]([C@@H](C)OC(=O)C[n+]2ccc(C(N)=O)cc2)OC1=O)[C@@H]3[C@H](O)[C@@H](C)[C@H]4OC(=O)c1ccc[nH]1 (stereo partly drawn) [Example 70] | > 128 µg/mL | 0.5 µg/mL | 16 µg/mL | 13.3 µM | < 0.00884 µM | 0.5 µg/mL |  |  |  |  |  |  |  | 
CO[C@H]1CC2C=C[C@H]3[C@H]4O[C@]2(/C(C)=C/[C@@H](C)[C@@H]([C@@H](C)OC(=O)C[n+]2ccccc2)OC1=O)[C@@H]3[C@H](O)[C@@H](C)[C@H]4OC(=O)c1ccc[nH]1 (stereo partly drawn) [Example 71] | > 128 µg/mL | 0.25 µg/mL | 8 µg/mL | 18.9 µM | < 0.00944 µM | 0.25 µg/mL |  |  |  |  |  |  |  | 
CO[C@H]1C[C@H]2C=C[C@H]3[C@H]4O[C@]2(/C(C)=C/[C@@H](C)[C@@H]([C@@H](C)OC(=O)C[N+]25CC[N+](CC(N)=O)(CC2)CC5)OC1=O)[C@@H]3[C@H](O)[C@@H](C)[C@H]4OC(=O)c1ccc[nH]1.O=S(=O)([O-])C(F)(F)F.[Br-] [Example 74] | > 128 µg/mL | 0.5 µg/mL | 32 µg/mL | 20.9 µM | < 0.00628 µM | 0.5 µg/mL |  |  |  |  |  |  |  | 
CO[C@H]1C[C@H]2C=CC3C4[C@H](O)[C@@H](C)[C@@H](OC(=O)c5ccc[nH]5)[C@@H]3O[C@]42/C(C)=C/[C@@H](C)[C@@H]([C@@H](C)OC(=O)C(=O)NCc2ccccc2)OC1=O [Example 114, (3R,4S,7S,8aS,11R,12R,13R,14R,14bS,E)-4-((R)-1-(2-(benzylamino)-2-oxoacetoxy)ethyl)-14-hydroxy-7-methoxy-1,3,13-trimethyl-6-oxo-3,4,6,7,8,8a,10a,11,12,13,14,14a-dodecahydro-11,14b-epoxynaphtho[2,1-e]oxecin-12-yl 1H-pyrrole-2-carboxylate] | > 128 µg/mL | 0.25 µg/mL (≈ 0.369 µM) | 8 µg/mL (≈ 11.8 µM) |  | < 0.00887 µM | < 0.125 µg/mL | 16.3 µM |  |  |  |  |  |  | 
CO[C@H]1C[C@H]2C=CC3C4[C@H](O)[C@@H](C)[C@@H](OC(=O)c5ccc[nH]5)[C@@H]3O[C@]42/C(C)=C/[C@@H](C)[C@@H]([C@@H](C)OC(=O)C(=O)NCc2ccncc2)OC1=O [Example 115] |  |  |  |  |  |  |  |  | >64 µg/mL | 0.5 µg/mL | 8 µg/mL | 9 µg/mL | <0.006 µg/mL | 0.5 µg/mL
CO[C@H]1C[C@H]2C=CC3C4[C@H](O)[C@@H](C)[C@@H](OC(=O)c5ccc[nH]5)[C@@H]3O[C@]42/C(C)=C/[C@@H](C)[C@@H]([C@@H](C)OC(=O)C(=O)NC(C)(C)C)OC1=O [Example 116] |  |  |  |  |  |  |  |  | >128* μg/mL | 0.25 µg/mL | 8 µg/mL | 15 µg/mL | 0.006 µg/mL | ≤0.125 µg/mL
